Legend:
[1] = Degree of degradation of dentin collagen in dentin mixed layers; conditions: ranking among 32% phosphoric acid, EDTA and GCE
Description: FIG. 4B compares degree of degradation of dentin collagen in each group of the dentin mixed layers.
In this experiment, the inhibitory effect of GCE on soluble MMP-9 was evaluated using purified recombinant human MMP-9 (rhMMP-9) and a generic MMP assay kit (Sensolyte, AnaSpec Inc., Fremont, CA, USA). The MMP assay kit contains an intact thiopeptolide that is cleaved by specific MMPs to release a sulfhydryl group that produces colored 2-nitro-5-thiobenzoic acid with Ellman's reagent. A series of EDTA and GCE solutions (50 mg/mL, 25 mg/mL, 10 mg/mL, 5 mg/mL, 1 mg/mL) were used as test agents and 32% H3PO4 was used for comparison. […] Readings were taken after 60 min of incubation at 37° C. Absorbance was measured at 412 nm using a 96-well plate reader (VICTOR Nivo™, PerkinElmer). Background absorbance was determined from the “substrate control” wells and subtracted from the readings of the other wells containing the thiopeptolide substrate. The potency of rhMMP-9 inhibition by GM6001, the kit-included MMP inhibitor, and the […] concentrations of EDTA or GCE were expressed as percentages of the adjusted absorbance of the “positive control”. Inhibition of MMP (%) was calculated as 1−([A]test compound group−[A]test compound control)/([A]positive control−[A]substrate control), where [A] represents the absorbance values of the wells. […]

[2] = Rate of chelating Ca2+ from mineralized dentin, inductively coupled plasma-atomic emission spectrometry; conditions: 0.1M EDTA vs EDTA cross-linked glycol chitosan at 50, 25 and 10 mg/ml
[3] = Transmission electron microscopy of mineralized dentin treated with demineralizing agents; conditions: 0.1M EDTA for 60 seconds or 25 mg/ml glycol chitosan-EDTA for 30 seconds
Description: For wet bonding, the conditioned specimen was kept moist by removing excess water from the dentin surface with lint-free tissues prior to bonding. For dry bonding, the conditioned dentin was air-dried with […] moisture-free air for 5 sec. The dentin bond strength was measured by the following methods. After treatment with various demineralizing agents and rinsing with deionized water, each tooth segment was bonded with Adper Single Bond 2 (3M ESPE; St Paul, MN, USA). After bonding, a 4-mm thick of resin composite (Z250, 3M ESPE) was placed over the adhesive-coated dentin surface using incremental light-curing. The bonded teeth with composite build-ups were stored in water for 24 hours at 37° C. Each specimen was subsequently sectioned to 0.9 mm×0.9 mm×7 mm long sticks, each with the resin-dentin interface in the middle of the stick. Each stick was attached with cyanoacrylate glue (Zapit; Dental Ventures of America, Corona, CA, USA) to a testing jig and stressed to failure under tension in a universal testing machine (Vitrodyne V1000; Liveco Inc., Burlington, VT, USA) at a cross-head speed of 1 mm/min. The tensile load at failure was recorded and divided by the measured cross-sectioned area of each beam to yield the tensile bond strength. The mean bond strength value derived from the 4 beams of each tooth was used to represent the tensile bond strength of that particular tooth. […]

[4] = system: human dental pulp stem cells (hDPSCs); assay: Cytotoxicity test: mitochondrial dehydrogenase activity and intracellular DNA content; format: cell-based; conditions: hDPSCs exposed to 32% phosphoric acid, 0.1M EDTA or 25 mg/ml GCE; PBS control
Source text: (§1) FIG. 5A detects the mitochondrial dehydrogenase activity (Mito.) of human dental pulp stem cells (hDPSCs) that had been exposed to different dentin demineralizing agents.
FIG. 5B detects intracellular DNA content of human dental pulp stem cells that had been exposed to different dentin demineralizing agents.
as §1, with “agents. FIG. 5B detects intracellular DNA content of human dental pulp stem cells that had been exposed to different dentin demineralizing agents.” for “agents.”

SMILES | degradation rate of collagen [1] | demineralization effect (rate of chelating Ca2+) [2] | extent of dentin demineralization in TEM image [3] | cell viability [4]
O=C(O)CN(CCN(CC(=O)O)CC(=O)O)CC(=O)O [EDTA, ethylenediaminetetraacetic acid] | followed by EDTA | strongest demineralization effect | complete demineralization in a part of area and partial demineralization in some areas | followed by the EDTA group
O=P(O)(O)O [phosphoric acid] | highest |  |  | lowest

Reference: patent US11980681B2, “Material for demineralizing dentin collagen fibril, preparation method and application thereof” (THE FOURTH MILITARY MEDICAL UNIVERSITY OF CHINESE PEOPLE'S …, priority 2019, dated 2024)
